The structures appear in SMILES notation. Calls of active or inactive are those of the source. The rule behind the calls is not given here.

Data set [1] concerns Influenza A virus. The data set can be described thus: Antiviral activity against Influenza A virus H9N2 infected in MDCK-II cells assessed as inhibition of viral replication measured after 24 hrs by immunostaining based assay. The conditions noted are these: DDE = dose-dependent effect. The data set is classed as functional, organism-based.
Data set [2] deals with T1, Suppressor of tumorigenicity 14 protein (Homo sapiens, UniProt Q9Y5Y6).
T1 sequence (Q9Y5Y6 whole entry): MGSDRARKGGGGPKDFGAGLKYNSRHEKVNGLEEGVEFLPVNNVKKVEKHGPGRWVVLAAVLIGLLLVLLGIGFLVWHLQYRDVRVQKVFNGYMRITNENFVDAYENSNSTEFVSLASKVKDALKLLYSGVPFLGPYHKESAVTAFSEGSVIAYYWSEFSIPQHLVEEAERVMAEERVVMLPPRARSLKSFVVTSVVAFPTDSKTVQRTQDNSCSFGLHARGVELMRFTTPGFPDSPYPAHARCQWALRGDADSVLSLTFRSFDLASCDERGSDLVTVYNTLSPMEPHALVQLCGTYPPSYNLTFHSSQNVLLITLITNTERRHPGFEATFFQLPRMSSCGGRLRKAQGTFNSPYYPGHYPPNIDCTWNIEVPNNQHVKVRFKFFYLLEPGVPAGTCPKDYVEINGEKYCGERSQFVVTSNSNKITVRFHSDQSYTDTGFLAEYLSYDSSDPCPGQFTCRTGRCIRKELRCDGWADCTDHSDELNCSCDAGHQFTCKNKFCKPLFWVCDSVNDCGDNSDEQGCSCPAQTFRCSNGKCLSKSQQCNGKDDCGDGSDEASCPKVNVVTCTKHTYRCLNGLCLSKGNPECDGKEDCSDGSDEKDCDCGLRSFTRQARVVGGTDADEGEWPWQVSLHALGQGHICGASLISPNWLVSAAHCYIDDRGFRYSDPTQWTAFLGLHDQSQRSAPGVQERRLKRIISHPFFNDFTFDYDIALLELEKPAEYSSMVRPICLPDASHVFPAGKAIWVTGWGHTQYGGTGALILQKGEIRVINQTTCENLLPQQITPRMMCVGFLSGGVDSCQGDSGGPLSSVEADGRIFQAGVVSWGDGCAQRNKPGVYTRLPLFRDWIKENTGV
As to the kind of experiment: Binding affinity to N-terminal MRGS(His)6GSDDDDK-tagged Matriptase (unknown origin) expressed in Escherichia coli assessed as inhibition constant using Mes-DArg-Pro-Arg-AMC as substrate.

The next data set relates to MDCK-II. As to the kind of experiment: Cytotoxicity against MDCK-II cells assessed as reduction in cell viability at 50 uM measured for 24 hrs by Celltiter-glo luminescent assay. The data set is classed as toxicity, cell-based, Canis lupus familiaris. The conditions noted are these: dog. Background: ATP-based viability assays read luminescence as a measure of living cells.

Data set [3] can be described thus: Selectivity ratio of Ki for binding affinity to bovine thrombin assessed as inhibition constant using tosyl-Gly-Pro-Arg-AMC as substrate to Ki for binding affinity to N-terminal MRGS(His)6GSDDDDK-tagged Matriptase (unknown origin) expressed in Escherichia coli assessed as inhibition constant using Mes-DArg-Pro-Arg-AMC as substrate. The conditions noted are these: Homo sapiens.

The subject of data set [4] is Influenza A virus. The data set can be described thus: Antiviral activity against Influenza A virus H9N2 infected in MDCK-II cells assessed as inhibition of viral replication at 5 uM measured after 24 hrs by immunostaining based assay. The data set is classed as functional, organism-based.
In data set [5] the test system is Influenza A virus. As to the kind of experiment: Antiviral activity against Influenza A virus H9N2 infected in MDCK-II cells assessed as reduction in comet-shaped foci at 20 uM measured after 24 hrs by immunostaining based assay. The format is functional, organism-based.
Data set [6] concerns Influenza A virus. As to the kind of experiment: Antiviral activity against Influenza A virus H9N2 infected in MDCK-II cells assessed as reduction in comet-shaped foci at 50 uM measured after 24 hrs by immunostaining based assay. The format is functional, organism-based.
Data set [7] in a line: Binding affinity to bovine trypsin assessed as inhibition constant […]. Also on record: species or system Bos taurus.
The species entered for a further data set is Homo sapiens. The data set can be described thus: Selectivity ratio of Ki for binding affinity to FXa (unknown origin) using Mes-DArg-Pro-Arg-AMC as substrate to Ki for binding affinity to N-terminal MRGS(His)6GSDDDDK-tagged Matriptase (unknown origin ) expressed in Escherichia coli assessed as inhibition constant using Mes-DArg-Pro-Arg-AMC as substrate.

In another data set the target is Coagulation factor X (Homo sapiens, UniProt P00742). As to the kind of experiment: Binding affinity to FXa (unknown origin) using Mes-DArg-Pro-Arg-AMC as substrate.
Chain of Coagulation factor X (P00742 41-179 limits assumed): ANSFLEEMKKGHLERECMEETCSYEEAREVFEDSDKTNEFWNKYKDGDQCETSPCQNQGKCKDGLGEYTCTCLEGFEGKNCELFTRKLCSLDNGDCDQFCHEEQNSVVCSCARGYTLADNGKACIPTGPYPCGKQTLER
Chain of Coagulation factor X (P00742 235-488 limits assumed): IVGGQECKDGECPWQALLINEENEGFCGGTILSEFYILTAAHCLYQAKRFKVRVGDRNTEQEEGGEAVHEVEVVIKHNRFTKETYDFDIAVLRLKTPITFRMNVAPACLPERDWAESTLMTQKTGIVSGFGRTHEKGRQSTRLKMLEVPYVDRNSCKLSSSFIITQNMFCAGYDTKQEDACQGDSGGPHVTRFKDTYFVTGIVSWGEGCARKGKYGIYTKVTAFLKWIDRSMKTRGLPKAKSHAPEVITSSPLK
A further data set deals with Prothrombin (Bos taurus, UniProt P00735). As to the kind of experiment: Binding affinity to bovine thrombin assessed as inhibition constant using tosyl-Gly-Pro-Arg-AMC as substrate.
For data set [8], the system named is Influenza A virus. As to the kind of experiment: Antiviral activity against Influenza A virus H9N2 infected in MDCK-II cells assessed as reduction in viral titer in supernatants at 5 to 50 uM measured after 24 hrs by plaque assay. The format is functional, organism-based. The conditions noted are these: dose 5-50 µM.

Regarding `CC(C)(C)NC(=O)NC1CCN(C(=O)[C@H](Cc2cccc(C(=N)N)c2)NS(=O)(=O)c2cccc(-c3cccc(C(=N)N)c3)c2)CC1`, the Activity result in the data set with Influenza A virus [1] was “Dde”; with MDCK-II it was “Toxic”. In addition, the Ki in data set [2] is 0.7 nM; in [7] it was 5 nM; at Coagulation factor X, 9 nM; on Prothrombin it was 2550 nM. Also, the Ratio Ki in [3] turned out to be 3640; in the data set listed under Homo sapiens it was 13. Also, the outcome in the data set with Influenza A virus [4], in the data set with Influenza A virus [5], in the data set on Influenza A virus [6] and in the data set on Influenza A virus [8] was Active.
As for `CC(C)(C)NC(=O)NC1CCN(C(=O)[C@H](Cc2cccc(C(=N)N)c2)NS(=O)(=O)c2cccc(-c3ccc(CO)c(F)c3)c2)CC1`, the Activity result is “Dde” in the data set on Influenza A virus [1] and “Toxic” in the data set on MDCK-II. Also, the Ki in data set [2] was 15 nM; in data set [7] it was 0.6 nM; on Coagulation factor X it was 190 nM; at Prothrombin, 23000 nM. In addition, the results for the Ratio Ki (in [3]; in the data set listed under Homo sapiens) were 1530 and 13, respectively. The result in the data set with Influenza A virus [5], in the data set with Influenza A virus [6] and in the data set with Influenza A virus [8] was Active.

The term Ki denotes the equilibrium dissociation constant of an inhibitor or competing ligand from its target.

Values taken from ChEMBL document CHEMBL5113419.
